EC50 data for 1 compound are collected here from paper PMC4708007 (Bioscience Reports, 2015).

The assay deals with T1, FtRelA (Francisella tularensis, UniProt Q5NEV0).
T1 construct: gene relA
Kind of assay: biochemical.

T1 sequence (Q5NEV0 1-647 limits assumed): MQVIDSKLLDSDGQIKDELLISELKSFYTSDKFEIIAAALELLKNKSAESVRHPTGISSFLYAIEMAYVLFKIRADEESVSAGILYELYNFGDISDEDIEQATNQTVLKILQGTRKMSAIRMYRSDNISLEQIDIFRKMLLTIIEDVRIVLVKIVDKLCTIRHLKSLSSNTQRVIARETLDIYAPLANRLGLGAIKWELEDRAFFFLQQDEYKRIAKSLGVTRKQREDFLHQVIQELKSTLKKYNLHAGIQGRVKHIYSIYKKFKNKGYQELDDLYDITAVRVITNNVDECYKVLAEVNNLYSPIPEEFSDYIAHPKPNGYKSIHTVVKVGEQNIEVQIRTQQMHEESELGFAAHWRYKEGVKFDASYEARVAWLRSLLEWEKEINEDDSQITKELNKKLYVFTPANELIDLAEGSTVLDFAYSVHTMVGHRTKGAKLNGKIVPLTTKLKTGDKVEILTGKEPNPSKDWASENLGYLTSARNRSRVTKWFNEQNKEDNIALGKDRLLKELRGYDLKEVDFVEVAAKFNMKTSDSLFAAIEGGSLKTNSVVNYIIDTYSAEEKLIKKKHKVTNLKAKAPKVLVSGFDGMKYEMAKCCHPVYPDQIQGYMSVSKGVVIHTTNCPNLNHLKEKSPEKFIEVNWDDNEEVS

In general, EC50 refers to the concentration at which the effect is half-maximal. A low value points to greater potency. `Nc1nc2c(ncn2[C@@H]2O[C@H](COP(=O)(O)OP(=O)(O)O)[C@@H](OP(=O)(O)OP(=O)(O)O)[C@H]2O)c(=O)[nH]1` [ppGpp] yielded an EC50 of 60 ± 1.9 µM.
